The target of test [1] is T1, recombinant human Wee1A kinase (Homo sapiens, UniProt P30291).
T1 construct: full length Wee1 kinase was expressed by baculovirus in insect cells; purchased Invitrogen PV3817; host or cells: insect cells (baculovirus)
The test is described as follows: Wee1A kinase binding assay (LanthaScreen Eu time-resolved FRET). Put shortly: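 Full-length, baculovirus-expressed GST-tagged Wee1A (5 nM) was mixed with 2 nM Eu-anti-GST antibody, 30 nM kinase tracer 178 and compound (1% DMSO). Buffer was 50 mM HEPES pH 7.5, 10 mM MgCl2, 1 mM EGTA, 0.01% Brij-35, incubated 60 min at room temperature. TR-FRET 665/615 nm emission ratios from duplicates were curve-fitted.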
Background: In TR-FRET formats the signal depends on donor and acceptor labels being close together.

Test [2] concerns the target T2, Myt1 kinase (recombinant PMYT-1) (Homo sapiens, UniProt Q99640).
T2 construct: full length PMYT-1 was expressed by baculovirus in insect cells; purchased Invitrogen A30984; host or cells: insect cells (baculovirus)
T2 sequence (Q99640 1-499): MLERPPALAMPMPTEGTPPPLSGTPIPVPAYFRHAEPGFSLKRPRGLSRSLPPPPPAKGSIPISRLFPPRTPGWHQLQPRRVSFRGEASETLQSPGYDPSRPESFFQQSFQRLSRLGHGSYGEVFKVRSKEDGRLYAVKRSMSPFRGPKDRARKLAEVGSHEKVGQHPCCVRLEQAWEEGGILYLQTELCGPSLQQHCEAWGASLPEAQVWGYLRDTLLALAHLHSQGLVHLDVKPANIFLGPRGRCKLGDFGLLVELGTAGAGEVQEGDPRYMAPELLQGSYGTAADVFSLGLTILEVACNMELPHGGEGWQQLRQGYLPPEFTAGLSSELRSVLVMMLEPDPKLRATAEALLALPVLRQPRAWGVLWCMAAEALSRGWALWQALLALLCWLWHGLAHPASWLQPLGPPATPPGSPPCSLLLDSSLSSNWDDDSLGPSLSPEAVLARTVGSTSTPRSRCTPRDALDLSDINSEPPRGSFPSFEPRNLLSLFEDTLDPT
Briefly: Myt1 kinase binding assay (LanthaScreen Eu Kinase Binding Assay). Put shortly: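 Compound binding to Myt1 kinase was assessed using the LanthaScreen Eu Kinase Binding Assay. This europium-based binding format was applied to quantify how strongly each compound bound to the Myt1 enzyme, and the binding affinity was reported for each compound as an IC50 value.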

Test [3] deals with T3, Wee1A kinase (CDK1 Tyr15 phosphorylation in ACHN renal cell carcinoma cells) (Homo sapiens, UniProt P30291).
T3 construct: pCDK1 Tyr15 immunofluorescence read-out
T3 sequence (P30291 whole entry): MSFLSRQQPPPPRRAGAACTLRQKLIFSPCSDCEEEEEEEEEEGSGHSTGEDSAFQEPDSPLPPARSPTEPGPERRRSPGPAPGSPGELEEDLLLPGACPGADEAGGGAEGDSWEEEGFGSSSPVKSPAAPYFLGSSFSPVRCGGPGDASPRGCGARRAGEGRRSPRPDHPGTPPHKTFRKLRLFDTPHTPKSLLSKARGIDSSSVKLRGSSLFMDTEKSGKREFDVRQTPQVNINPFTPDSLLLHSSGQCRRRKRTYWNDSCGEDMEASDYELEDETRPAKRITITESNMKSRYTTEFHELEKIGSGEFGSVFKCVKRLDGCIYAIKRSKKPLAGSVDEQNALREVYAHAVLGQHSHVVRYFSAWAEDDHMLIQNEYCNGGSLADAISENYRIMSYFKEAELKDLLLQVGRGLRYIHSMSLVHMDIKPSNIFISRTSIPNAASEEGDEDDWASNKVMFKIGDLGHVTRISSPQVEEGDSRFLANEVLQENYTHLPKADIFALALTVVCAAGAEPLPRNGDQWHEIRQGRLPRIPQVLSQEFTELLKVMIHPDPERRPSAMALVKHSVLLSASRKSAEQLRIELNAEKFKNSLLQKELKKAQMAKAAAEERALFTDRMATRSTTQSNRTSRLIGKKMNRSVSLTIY
The test is described as follows: High-content imaging of pCdk1 Y15, Wee1A kinase target engagement in ACHN cells. Format: cell-based. Summed up: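 EC50 values come from the per-well fraction of cells with nuclear pCdk1 Y15 staining, normalised to DMSO control, by automated immunofluorescence imaging. Cells were ACHN renal carcinoma, treated 4 h with compound at 7–5,000 nM or 0.3–200 nM.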

Setting [4] is: 30 nM tracer 178, 5 nM Wee1A kinase, 2 nM Eu-labeled antibody, 60 minutes at room temperature, read-out: Wee1A kinase Binding IC50.
Setting [5] is: 3 nM tracer 178, 2.5 nM PMYT-1, 1 nM Eu-labeled antibody, read-out: Myt1 kinase Binding IC50.
Setting [6] is: 4 h treatment, nuclear positivity for pCdk1 Y15 vs DMSO control, read-out: CDK1 Tyr15 Phosphorylation EC50.
[7] abbreviates: Myt1 kinase Binding IC50, 3 nM tracer 178, 2.5 nM PMYT-1, 1 nM Eu-labeled antibody.
[8] abbreviates: read-out: CDK1 Tyr15 Phosphorylation EC50, 4 h treatment, nuclear positivity for pCdk1 Y15 vs DMSO control.

Where two headings read alike, the source gives them in different places.

For orientation: IC50 means the concentration at which inhibition is half-maximal. The EC50 is the concentration at which the effect is half-maximal.

T1 sequence (P30291 whole entry): as above

In the case of `C=CCn1c(=O)c2cnc(Nc3ccc(Cl)cc3)nc2n1-c1cccc(O[C@@H]2CCCN(C)C2)n1` [Compound 187, 1-{6-[(R)-1-methyl-3-piperidyloxy]-2-pyridyl}-2-allyl-6-(p-chlorophenylamino)-1,2-dihydro-3H-1,2,5,7-tetraazainden-3-one], the IC50 in test [1] (setting [4]) is < 10 nM; in test [2] (setting [5]), 100 to 500 nM. For the same compound, the EC50 in test [3] (setting [6]) was 500 to 1000 nM.

Regarding `C=CCn1c(=O)c2cnc(Nc3cnn(C)c3)nc2n1-c1cccc(O[C@@H]2C[C@H]3CC[C@@H](C2)N3C)n1` [Compound 189, 6-[(1-methyl-1H-pyrazol-4-yl)amino]-1-(6-{[(cis)-8-methyl-8-azabicyclo[3.2.1]octan-3-yl]oxy}pyridin-2-yl)-2-(prop-2-en-1-yl)-1H,2H,3H-pyrazolo[3,4-d]pyrimidin-3-one], the results for the concentration for half-maximal inhibition (IC50) in test [1] and in test [2] (setting [7]) were < 10 nM and > 500 nM, respectively. The EC50 in test [3] (setting [8]) fell in the range of 500 to 1000 nM.

On to `C=CCn1c(=O)c2cnc(Nc3ccc(Cl)cc3)nc2n1-c1cccc(O[C@@H]2CCCNC2)n1` [Compound 192, 1-{6-[(R)-3-piperidyloxy]-2-pyridyl}-2-allyl-6-(p-chlorophenylamino)-1,2-dihydro-3H-1,2,5,7-tetraazainden-3-one], for which the IC50 was < 10 nM in test [1] (setting [4]) and 100 to 500 nM in test [2] (setting [5]). The EC50 in test [3] (setting [6]) lay in the range of 100 to 500 nM.

Consider `C=CCn1c(=O)c2cnc(Nc3cnn(C(C)C)c3)nc2n1-c1cccc(OC2CC3CCCC(C2)N3C)n1` (stereo not drawn) [Compound 193, 2-allyl-6-(1-isopropyl-4-pyrazolylamino)-1-{6-(9-methyl-9-azabicyclo[3.3.1]non-3-yloxy)-2-pyridyl}-1,2-dihydro-3H-1,2,5,7-tetraazainden-3-one], for which the IC50 in test [1] (setting [4]) is < 10 nM; in test [2] (setting [5]) it was > 500 nM. Besides, the EC50 in test [3] (setting [6]) was in the range of 100 to 500 nM.

With `C=CCn1c(=O)c2cnc(Nc3cnn(CCC(F)(F)F)c3)nc2n1-c1cccc(N(C)C2CCN(C)CC2)n1` [Compound 201, 2-allyl-1-(6-(methyl(1-methylpiperidin-4-yl)amino)pyridin-2-yl)-6-((1-(3,3,3-trifluoropropyl)-1H-pyrazol-4-yl)amino)-1,2-dihydro-3H-pyrazolo[3,4-d]pyrimidin-3-one], the IC50 in test [1] was < 10 nM; in test [2] (setting [7]), 100 to 500 nM. Also, the EC50 in test [3] (setting [8]) is 500 to 1000 nM.

In the case of `C=CCn1c(=O)c2cnc(Nc3cc(C)nc(C(F)(F)F)c3)nc2n1-c1cccc(OC2CCN(C)CC2)n1` [Compound 202, 6-{[2-methyl-6-(trifluoromethyl)pyridin-4-yl]amino}-1-{6-[(1-methylpiperidin-4-yl)oxy]pyridin-2-yl}-2-(prop-2-en-1-yl)-1H,2H,3H-pyrazolo[3,4-d]pyrimidin-3-one], the values for the IC50 in test [1] (setting [4]) and in test [2] (setting [5]) were < 10 nM and 100 to 500 nM, respectively. In test [3] (setting [6]), the EC50 is 500 to 1000 nM.

In the case of `C=CCn1c(=O)c2cnc(Nc3ccc4c(cnn4C)c3)nc2n1-c1cccc(OC2CCNCC2)c1` [Compound 223, 2-allyl-6-(1-methyl-1H-indazol-5-ylamino)-1-[m-(4-piperidyloxy)phenyl]-1,2-dihydro-3H-1,2,5,7-tetraazainden-3-one], the IC50 in test [1] (setting [4]) is < 10 nM; in test [2] (setting [5]) it was > 500 nM. The EC50 in test [3] (setting [6]) was in the range of 100 to 500 nM.

Turning to `C=CCn1c(=O)c2cnc(Nc3ccc(C)nc3)nc2n1-c1cccc(OC2CCNCC2)n1` [Compound 237, 2-allyl-6-((6-methylpyridin-3-yl)amino)-1-(6-(piperidin-4-yloxy)pyridin-2-yl)-1,2-dihydro-3H-pyrazolo[3,4-d]pyrimidin-3-one], the IC50 is < 10 nM in test [1] (setting [4]) and 20 to 100 nM in test [2] (setting [5]). Also, in test [3] (setting [6]), the EC50 fell in the range of 100 to 500 nM.

On to `C=CCn1c(=O)c2cnc(Nc3ccc4nccnc4c3)nc2n1-c1cccc(OC2CCNCC2)n1` [Compound 239, 2-allyl-1-[6-(4-piperidyloxy)-2-pyridyl]-6-(6-quinoxalinylamino)-1,2-dihydro-3H-1,2,5,7-tetraazainden-3-one], for which the IC50 in test [1] (setting [4]) is < 10 nM; in test [2] (setting [5]), < 20 nM. The EC50 in test [3] (setting [6]) was in the range of 100 to 500 nM.

In the case of `C=CCn1c(=O)c2cnc(Nc3ccc4ncnn4c3)nc2n1-c1cccc(OC2CCNCC2)n1` [Compound 245, 2-allyl-6-(1,3,3a-triaza-5-indenylamino)-1-[6-(4-piperidyloxy)-2-pyridyl]-1,2-dihydro-3H-1,2,5,7-tetraazainden-3-one], the IC50 in test [1] (setting [4]) was < 10 nM; in test [2] (setting [5]), 20 to 100 nM. In addition, the EC50 in test [3] (setting [6]) is > 1000 nM.

For `C=CCn1c(=O)c2cnc(Nc3ccc(F)cc3)nc2n1-c1ccnc(OC2CCNCC2)n1` [Compound 247, 2-allyl-6-((4-fluorophenyl)amino)-1-(2-((piperidin-4-yl)oxy)pyrimidin-4-yl)-1,2-dihydro-3H-pyrazolo[3,4-d]pyrimidin-3-one], the IC50 is < 10 nM in test [1] (setting [4]) and < 20 nM in test [2] (setting [5]). Besides, the EC50 in test [3] (setting [6]) lay within 100 to 500 nM.

Turning to `C=CCn1c(=O)c2cnc(Nc3ccc4ncnn4c3)nc2n1-c1cccc(OC2CCN(C)CC2)n1` [Compound 249, 2-allyl-6-(1,3,3a-triaza-5-indenylamino)-1-[6-(1-methyl-4-piperidyloxy)-2-pyridyl]-1,2-dihydro-3H-1,2,5,7-tetraazainden-3-one], the values for the IC50 in test [1] (setting [4]) and in test [2] (setting [5]) were < 10 nM and 20 to 100 nM, respectively. Besides, in test [3] (setting [6]), the EC50 is 100 to 500 nM.

Consider `C=CCn1c(=O)c2cnc(Nc3ccc(N4CCOCC4)c(C)c3)nc2n1-c1cccc(OC2CCNCC2)n1` [Compound 262, 2-allyl-6-(4-morpholino-3-toluidino)-1-[6-(4-piperidyloxy)-2-pyridyl]-1,2-dihydro-3H-1,2,5,7-tetraazainden-3-one], for which the IC50 in test [1] (setting [4]) is < 10 nM; in test [2] (setting [5]) it was 20 to 100 nM. For the same compound, in test [3] (setting [6]), the EC50 is < 100 nM.

As to `C=CCn1c(=O)c2cnc(Nc3ccnc(OC)c3)nc2n1-c1cccc(OC2CCN(C)CC2)n1` [Compound 263, 2-allyl-6-(2-methoxy-4-pyridylamino)-1-[6-(1-methyl-4-piperidyloxy)-2-pyridyl]-1,2-dihydro-3H-1,2,5,7-tetraazainden-3-one], the IC50 in test [1] (setting [4]) is < 10 nM; in test [2] (setting [5]), < 20 nM. For the same compound, the EC50 in test [3] (setting [6]) is < 100 nM.

Turning to `C=CCn1c(=O)c2cnc(Nc3ccc4nc(C)sc4c3)nc2n1-c1cccc(OC2CCNCC2)n1` [Compound 264, 2-allyl-6-(2-methyl-1,3-benzothiazol-6-ylamino)-1-[6-(4-piperidyloxy)-2-pyridyl]-1,2-dihydro-3H-1,2,5,7-tetraazainden-3-one], the half-inhibitory concentration (IC50) is < 10 nM in test [1] (setting [4]) and < 20 nM in test [2] (setting [5]). For the same compound, in test [3] (setting [6]), the concentration for a half-maximal effect (EC50) is < 100 nM.

`CCn1c(=O)c2cnc(Nc3ccc(Br)cc3)nc2n1-c1cccc(OC2CCNCC2)n1` [Compound 267, 6-(p-bromophenylamino)-2-ethyl-1-[6-(4-piperidyloxy)-2-pyridyl]-1,2-dihydro-3H-1,2,5,7-tetraazainden-3-one]: the IC50 in test [1] (setting [4]) is < 10 nM; in test [2] (setting [5]) it was 20 to 100 nM. In addition, the EC50 in test [3] (setting [6]) was 100 to 500 nM.

For the compound `CCn1c(=O)c2cnc(Nc3ccc(Br)cc3)nc2n1-c1cccc(OC2CCN(C)CC2)n1` [Compound 268, 6-(p-bromophenylamino)-2-ethyl-1-[6-(1-methyl-4-piperidyloxy)-2-pyridyl]-1,2-dihydro-3H-1,2,5,7-tetraazainden-3-one], the IC50 was < 10 nM in test [1] (setting [4]) and < 20 nM in test [2] (setting [5]). In addition, the EC50 in test [3] (setting [6]) lay in the range of 100 to 500 nM.

With `C=CCn1c(=O)c2cnc(Nc3cccc(Br)c3)nc2n1-c1cccc(OC2CCN(C)CC2)n1` [Compound 269, 2-allyl-6-(m-bromophenylamino)-1-[6-(1-methyl-4-piperidyloxy)-2-pyridyl]-1,2-dihydro-3H-1,2,5,7-tetraazainden-3-one], the figures for the IC50 in test [1] (setting [4]) and in test [2] (setting [5]) were < 10 nM and < 20 nM, respectively. The EC50 in test [3] (setting [6]) was 100 to 500 nM.

Regarding `CCn1c(=O)c2cnc(Nc3ccc(-c4cnn(C)c4)cc3)nc2n1-c1cccc(OC2CCNCC2)n1` [Compound 271, 2-ethyl-6-[p-(1-methyl-4-pyrazolyl)phenylamino]-1-[6-(4-piperidyloxy)-2-pyridyl]-1,2-dihydro-3H-1,2,5,7-tetraazainden-3-one], the values for the IC50 in test [1] (setting [4]) and in test [2] (setting [5]) were < 10 nM and < 20 nM, respectively. The EC50 in test [3] (setting [6]) was in the range of 100 to 500 nM.

(Values after patent US20260364080A1, “PYRAZOLO-PYRIMIDINONE COMPOUNDS FOR USE IN METHODS OF INHIBITING WEE1 A KINASE” (Acrivon Therapeutics, Inc., priority 2023, published 2026).)
